Test system: Jurkat cell
Experiment: Inhibition of cell proliferation (CTG, intracellular ATP)
Assay type: cell-based
Conditions: Homo sapiens, Jurkat, 72 h
Protocol: Jurkat or 293T cells were seeded into a 96-well plate at 3000 cells/well. After overnight adherence culture, the serially diluted compound in DMSO was added. After 72 h, the intracellular ATP level was determined by CTG. The IC50 for the inhibition of cell proliferation by the compounds was calculated compared to the DMSO group. Table 7. Inhibitory activity of compounds of the present disclosure against Jurkat/293T cell proliferation (IC50, µM)

CS(C)(=O)=Nc1ccc(C(=O)Nc2cc(-c3ccc(F)cc3)ccc2N)cc1 [Compound 1, N-(4-Amino-4'-fluoro-[1,1'-biphenyl]-3-yl)-4-((dimethyl(oxo)-1^λ-6-sulfaneylidene)amino)benzamide]
IC50: 650 nM

— patent EP4714938A1, “HDAC1/2 SELECTIVE INHIBITOR AND USE THEREOF” (Wigen Biomedicine Technology (Shanghai) Co., Ltd., priority 2023, dated 2024)
